For assay [1], the system named is S. aureus recipient RN4220 transformants with pIP1717. Kind of assay: MIC by serial twofold dilutions in MHA, S. aureus RN4220 transformants carrying pIP1717 (vgaB). As to conditions: Staphylococcus aureus; S. aureus RN4220 transformants with pIP1717 (2.4 kb HindIII-HaeIII fragment carrying vgaB), selected on 10 μg/ml erythromycin; read-out: PIIA MICs. The format is cell-based. An excerpt:
First, the 2.4 kb HindIII-HaeIII fragment of pIP 1675, which contains only 10 nucleotide from vatB, was inserted into plasmid pOX300, and the recombinant plasmid, pIP1717 (FIG. 1B), was introduced by electroporation into the S. aureus recipient, RN4220 (Kreiswirth et al., 1983). Plasmid pOX300, also named pOX7, (Dyke and Curnock, 1989), is a hybrid of pUC18 and pE194ts and replicates in E. coli where it confers resistance to ampicillin and to erythromycin, and in S. aureus where only resistance to erythromycin is expressed. The S. aureus transformants selected on 10 μg/ml erythromycin were resistant to streptogramin A and related compounds (PIIA MICs=8-16 μg/ml). Thus, the 2.4-kb HindIII-HaeIII insert of pIP1717 (FIG. 1B) probably carried a streptogramin A resistance gene and was sequenced. The nucleotide (nucleotide) sequence of this fragment was determined by the dideoxy method (Sanger et al., 1977) with the reagents and the procedure recommended by the suppliers of the T^7 sequencing kit (Pharmacia International). Arrows indicate the direction and extent of each dideoxy-sequencing reaction. (FIG. 1B).
(§1) Minimal inhibitory concentrations (MICs) of antibiotics were determined by serial twofold dilutions of antibiotics in MHA (Ericson H. M. and S. C. Sherris, ActaPathol. Microbiol. Scand., 1971, Suppl. 217:Section B).

Assay [2] concerns Staphylococci resistant to synergistic mixtures of A and B compounds. The settings on record: Allignet et al., 1996; cited from earlier work.
Assay [3] has as its system S. aureus recipient strain RN4220 transformant harboring pIP1714. Kind of assay: Susceptibility to antimicrobial agents, S. aureus RN4220 transformant harboring pIP1714 (vatC, vgbB). Format: cell-based, Staphylococcus aureus. As to conditions: RN4220 transformant with pIP1714, selected on BHIA with 10 μg/ml pristinamycin IIA. How it is done:
The strain BM10711 harbored several plasmids including pIP1714 (5kb). This plasmid was […] by electroporation in a S. aureus recipient strain, RN4220. The transformant, harboring pIP1714, was selected on BHIA containing 10 μg/ml pristinamycin IIA.
Susceptibility to antimicrobial agents was determined with a disk diffusion assay and commercially available disks (Diagnostic Pasteur). Additional disks prepared in our laboratory contained streptogramin A (20 μg) or streptogramin B (40 μg).
as §1

`CC1=C\[C@@H](O)CC(=O)Cc2nc(co2)C(=O)N2CCC=C2C(=O)O[C@H](C(C)C)[C@H](C)/C=C/C(=O)NC\C=C\1` [PIIA, pristinamycin IIA]: the values for the MIC in assay [1] and in assay [2] were 8 to 16 µg/mL and at least 8 µg/mL, respectively.
Turning to streptogramin A, in assay [3], the “resistance conferred by plasmid” value is recorded as “resistances”.
For the molecule streptogramin B, the “resistance conferred by plasmid” value in assay [3] is “resistances”.

(Values after US6506893B1, “Polynucleotides and their use for detecting resistance to streptogramin A or to streptogramin B and related compounds” (priority 1997, dated 2003).)
